Some test systems named below: CCRF-CEM leukemia; ACHN renal; SW-620 colon; HCT-116 colon; KM20L2 colon; NCI-H522 lung; SK-MEL-5 melanoma; SNB-78 CNS; COLO 205 colon; MDA-N; DU-145 prostate.
Holding throughout (assay): NCI-60 cell line screen, 48 h

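48-hour exposure; five concentrations; linearly interpolated endpoints. TGI: concentration producing complete growth inhibition.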 Peptide text beside a SMILES is read from it. * marks the point of attachment. X26 = Clc1c(Cl)c(Cl)c(O*)c(Cl)c1Cl; Boc = CC(C)(C)OC(=O)*; OBn = c1ccc(CO*)cc1; Bn = c1ccc(C*)cc1

The values below come from PubChem BioAssay (NCI).

Take `c1c(N2CCOCC2)ssc1=[N+]1CCOCC1`: the TGI with CCRF-CEM leukemia, with ACHN renal, with SW-620 colon, in the test on HCT-116 colon, with KM20L2 colon and in the test with NCI-H522 lung was greater than 100 µM throughout. For the same molecule, the TGI in the test with SK-MEL-5 melanoma and in the test on SNB-78 CNS was greater than 100 µM each time.
Take `CCCO/N=[N+](\[O-])N(CC)CC`: the TGI with CCRF-CEM leukemia, with ACHN renal, in the test with SW-620 colon, with HCT-116 colon, in the test with KM20L2 colon and in the test on NCI-H522 lung was greater than 100 µM throughout. Moreover, the TGI in the test with SK-MEL-5 melanoma and in the test with SNB-78 CNS was greater than 100 µM each time.
`O=P1(C(O)/C=C/c2ccccc2)N(Cc2ccccc2)[C@@H]2CCCC[C@H]2N1Cc1ccccc1` (stereo not given in full): the TGI in the test with CCRF-CEM leukemia was greater than 100 µM; with COLO 205 colon it was 6.26 µM; in the test on ACHN renal, 37.1 µM; with SW-620 colon, 33.3 µM; with HCT-116 colon it was 14 µM; with NCI-H522 lung it was 12.1 µM. Moreover, the TGI in the test with MDA-N came out at 18.2 µM; with SK-MEL-5 melanoma, 16.4 µM; in the test on DU-145 prostate, 45.3 µM.
In the case of `Cc1ccc(S(=O)(=O)c2c(O)c3ccc(O)c(C)c3oc2=O)cc1`, the TGI with CCRF-CEM leukemia, in the test on COLO 205 colon, with ACHN renal, in the test with SW-620 colon, in the test on HCT-116 colon and in the test with NCI-H522 lung was greater than 100 µM each time. The TGI in the test with MDA-N, with SK-MEL-5 melanoma and in the test on DU-145 prostate was greater than 100 µM each time.
`O=C1c2cccnc2S(=O)(=O)N1c1ccc([N+](=O)[O-])cc1`: the TGI in the test with CCRF-CEM leukemia, with COLO 205 colon, in the test with ACHN renal, in the test on SW-620 colon, with HCT-116 colon and with NCI-H522 lung was greater than 100 µM in each case. In addition, the TGI with MDA-N, with SK-MEL-5 melanoma and in the test on DU-145 prostate was greater than 100 µM each time.
As for `CC1(C)N=C(N)N=C(N)N1c1cccc(OCc2cccc(N)c2)c1`, the TGI in the test with CCRF-CEM leukemia, in the test with COLO 205 colon, with ACHN renal, in the test with SW-620 colon, in the test with HCT-116 colon and in the test with NCI-H522 lung was greater than 100 µM in each case. Moreover, the TGI with MDA-N, with SK-MEL-5 melanoma and in the test on DU-145 prostate was greater than 100 µM each time.
`CC(C)CC(NC(=O)C(CCC(=O)OCc1ccccc1)NC(=O)OC(C)(C)C)C(=O)NC(COCc1ccccc1)C(=O)NC(Cc1ccccc1)C(=O)Oc1c(Cl)c(Cl)c(Cl)c(Cl)c1Cl` (stereo not given) (Boc-E(OBn)LS(Bn)F-X26; configuration not given here): the TGI was 74.7 µM in the test with CCRF-CEM leukemia; 58.5 µM in the test on COLO 205 colon; 57.8 µM with ACHN renal; greater than 100 µM in the test with SW-620 colon; 31.6 µM with HCT-116 colon; 51.4 µM in the test on NCI-H522 lung. In addition, the TGI in the test with MDA-N was 48.6 µM; in the test on SK-MEL-5 melanoma it was 40.9 µM; in the test on DU-145 prostate, greater than 100 µM.
Regarding `N#Cc1nc(CCCN2C(=O)c3ccccc3C2=O)oc1N`, the TGI with CCRF-CEM leukemia, in the test with COLO 205 colon, in the test with ACHN renal, in the test on SW-620 colon, in the test on HCT-116 colon and in the test on NCI-H522 lung was greater than 100 µM each time. The TGI with MDA-N, in the test with SK-MEL-5 melanoma and in the test on DU-145 prostate was greater than 100 µM each time.
Turning to `O=C(OC12CC3CC(CC(C3)C1)C2)c1ccc(NCc2cc(O)ccc2O)cc1`, the TGI came to 0.723 µM in the test on CCRF-CEM leukemia; 1.12 µM with COLO 205 colon; 2.35 µM in the test on ACHN renal; 4.92 µM in the test on SW-620 colon; 5.28 µM in the test on HCT-116 colon; 0.237 µM with NCI-H522 lung. Besides, the TGI with MDA-N stood at 6.56 µM; in the test on SK-MEL-5 melanoma, 3.74 µM; in the test with DU-145 prostate, 16.7 µM.
On to `C#CCOCC12C=CC(O1)C1COC(=O)C12` (stereo not given), for which the TGI in the test with CCRF-CEM leukemia, with COLO 205 colon, in the test with ACHN renal, in the test with SW-620 colon, with HCT-116 colon and in the test on NCI-H522 lung was greater than 100 µM in each case. Besides, the TGI with MDA-N, in the test on SK-MEL-5 melanoma and with DU-145 prostate was greater than 100 µM in each case.
Consider `CC(=O)OC1CC2(O)C(CCC3(C)C(c4ccc(=O)oc4)CCC32O)C2(C)C1=CC(O)C1OC12` (stereo not given), for which the TGI turned out to be 0.487 µM with CCRF-CEM leukemia; 0.354 µM in the test with COLO 205 colon; 0.144 µM in the test on SW-620 colon; 0.216 µM in the test with HCT-116 colon; 0.533 µM with KM20L2 colon; 0.0784 µM in the test with NCI-H522 lung. In addition, the TGI with SK-MEL-5 melanoma came to 0.0435 µM; in the test on SNB-78 CNS it was 0.279 µM.
With `C[n+]1c(-c2ccc(NC(=O)c3ccc(C(=O)Nc4ccc(-c5cn6ccccc6[n+]5C)cc4)cc3)cc2)cn2ccccc21`, the TGI in the test with CCRF-CEM leukemia, in the test on COLO 205 colon, with ACHN renal, with SW-620 colon, in the test on HCT-116 colon and with NCI-H522 lung was greater than 100 µM in each case. Further, the TGI in the test on MDA-N, in the test on SK-MEL-5 melanoma and with DU-145 prostate was greater than 100 µM each time.
